Here are results for 16 compounds from patent US5712139A, “Pyranose oxidase, pyranose oxidase gene, novel recombinant DNA and process for producing pyranose oxidase” (Kikkoman Corporation, priority 1994, dated 1998).

The target of one assay is T1, pyranose oxidase (Trametes versicolor, UniProt P79076).
T1 construct: purified, about 290 kDa by gel filtration; mature N-terminus […] in fungal enzyme; pPRME18 is the alternative N-terminally shortened construct
In words: Substrate specificity of pyranose oxidase (hydrogen peroxide / 4-aminoantipyrine-phenol-peroxidase colour reaction). Type of assay: biochemical, Coriolus versicolor. The conditions noted are these: pH 7. Here is the method:
3.0 ml of an enzyme-containing solution consisting of 1.0 ml of 0.1M Tris-HC1 buffer, pH 7.0, 0.2 ml of a color-producing solution (prepared by adding 2000 U peroxidase to 100 ml of 0.1 M Tris-HCl buffer, pH 7.0 containing 10 mM 4-aminoantipyrine and 10 mM phenol), 0.1 ml of 1M glucose, 0.1 ml pyranose oxidase solution and 1.6 ml water was allowed to react at 37° C., and the increase in absorbance at 500 nm was determined with U2000 double beam spectrophotometer (manufactured by Hitachi, Ltd.).
One unit of enzyme activity is defined as the amount of enzyme which causes formation of 1 μmol of hydrogen peroxide per minute at 37° C., pH 7.0. The calculation of […] was carried out using the following equation assuming that the molecular extinction coefficient of the quinoimine pigment formed under the above conditions is 5.3 x 10^3 : Enzyme activity: (ΔA500 /5.3)×(3.0/0.1)×dilution degree of enzyme.
For examination of the substrate specificity of the present enzyme, each of sugar solutions (0.1 M) shown in Table 1 was used in place of glucose in the method described in (1) above. 2.5 units of pyranose oxidase were added to the reaction solution. The activity for each substrate is shown in relative activity that is expressed relative to that (100%) for the substrate glucose.
As for galactose, the “relative activity (%)” value is reported as 3.2%.
In the case of mannose, the “relative activity (%)” value came out at 0.2%.

The same assay, now with this note: pH 7, read-out: relative activity (%).
Take `O=C(CO)[C@@H](O)[C@H](O)[C@@H](O)CO` [L-sorbose]: the activity at 3300 µM was 9%.

The assay is the same for the next values; noted with them: substrate 3.3 mM; relative to glucose = 100%; 2.5 units of pyranose oxidase; 37° C., pH 7.0.
For the compound `O=C(O)[C@H](O)[C@@H](O)[C@H](O)[C@H](O)CO` [gluconic acid], the “relative activity (%)” value came out at 0.4%.
On the same count and under the same terms, the figure for `OC[C@H]1O[C@H](O[C@H]2O[C@H](CO)[C@@H](O)[C@H](O)[C@H]2O)[C@H](O)[C@@H](O)[C@@H]1O` [trehalose] is 0.1%.
For the compound `OC[C@H]1O[C@H](O[C@H]2[C@H](O)[C@@H](O)[C@H](O)O[C@@H]2CO)[C@H](O)[C@@H](O)[C@@H]1O` [maltose], the “relative activity (%)” value is 1.1%.

The same assay, now with this note: substrate 3.3 mM; relative to glucose = 100%; 2.5 units of pyranose oxidase; 37° C., pH 7.0; read-out: relative activity (%).
Take `OC[C@H]1O[C@H](OC[C@H]2O[C@H](O[C@]3(CO)O[C@H](CO)[C@@H](O)[C@@H]3O)[C@H](O)[C@@H](O)[C@@H]2O)[C@H](O)[C@@H](O)[C@H]1O` [raffinose]: the activity at 3300 µM was 0%.
In the case of `OC[C@@H](O)[C@H](O)[C@@H](O)CO` [xylitol], the activity at 3300 µM is 0%.
The same measure, in the same setting: the figure for `CC(=O)N[C@H]1C(O)O[C@H](CO)[C@@H](O)[C@@H]1O` (stereo partly drawn) [N-acetyl-D-glucosamine] is 0%; for `OC1OC[C@@H](O)[C@H](O)[C@H]1O` (stereo partly drawn) [D-xylose] it is 6.5%.
Still for that read-out and setting: the figure for `O=C1O[C@H](CO)[C@@H](O)[C@H](O)[C@H]1O` [D-gluconic acidδ lactone] is 0.4%; for `OC[C@H]1OC(O)C[C@@H](O)[C@@H]1O` (stereo partly drawn) [2-deoxy-D-glycose] it is 1.6%; for `OC[C@H]1O[C@@](CO)(O[C@H]2O[C@H](CO)[C@@H](O)[C@H](O)[C@H]2O)[C@@H](O)[C@@H]1O` [sucrose] it is 0%.
On the same count and under the same terms, as for `C[C@@H]1OC(O)[C@H](O)[C@H](O)[C@H]1O` (stereo partly drawn) [L-rhamnose], the figure is 0.1%.
Turning to `OC[C@@H](O)[C@@H](O)[C@H](O)[C@@H](O)CO` [D-sorbitol], the activity at 3300 µM was determined as 0%.
`OC[C@H]1OC[C@H](O)[C@@H](O)[C@@H]1O` [1,5-anhydro-D-glucitol]: the activity at 3300 µM came out at 14.2%.

Still in this assay, the particulars now being: summary of Table 1.
As for galactose, the “substrate specificity in words” value is recorded as “acts on”.
As for `OC1OC[C@@H](O)[C@H](O)[C@H]1O` (stereo partly drawn) [D-xylose], the “substrate specificity in words” value was “acts on”.
Same read-out and setting: as for `OC[C@H]1OC[C@H](O)[C@@H](O)[C@@H]1O` [1,5-anhydro-D-glucitol], the entry is “acts on”.
